Common to all, as to format: in vivo
One data set concerns green rice leafhoppers. Description: Test Example 1: pesticidal effect on green rice leafhoppers, sprayed rice seedlings. The following applies: for Mortality: 20 % emulsifiable concentrate diluted to 200 times, next day, 1440 min; for KT50 (50 % knock-down time): 20 % emulsifiable concentrate diluted with water to 200 times. As for the experimental part:
The present compounds (1), (2), (3), (4), (5) and (6) were individually formulated according to ordinary procedure into 20 % emulsifiable concentrates. As a standard compound, 3,4-dimethylphenyl-N-methyl carbamate [hereinafter referred to as "Meobal" (registered trademark of Sumitomo Chemical Co., Ltd.)] was also formulated into a 20 % emulsifiable concentrate.
In flower pots of 9 cm. in diameter, about 20 rice seedlings per pot were grown to the stage of 3 to 4 leaves. Each of the above-mentioned emulsifiable concentrates was diluted with water to 200 times, and sprayed to the seedlings by use of a turn table. After air-drying, the seedlings were put in a 5 liter glass beaker, which was then covered at the top with gauze. Thereafter, 20 green rice leafhoppers were liberated into the beaker, and the number of knocked down insects was counted with lapse of time to calculate the value of KT50 (50 % knock-down time). On the next day, the number of dead and alive insects was counted to calculate the mortality.

The next data set has as its system housefly adults. Description: Test Example 3: pesticidal effects on housefly adults, Campbell's turn table, 0.2 % oil preparations. The settings on record: 0.2 % oil preparation, 5 ml, present compounds as dl-trans isomers; for mortality at 0.2 %: Musca domestica, 24 h, after a day. As for the experimental part:
dl-Trans isomers of the present compounds (1), (2), (3) and (4) were individually formulated by use of deodorized kerosene into 0.2 % oil preparations. As a control, pyrethrin was also formulated into a 0.2 % oil preparation.
Using the Campbell's turn table [Soap and Sanitary Chemicals; Vol. 14, No. 119 (1938)], 5 ml. of each of the above-mentioned oil preparations was sprayed. When 20 seconds had elapsed after the spraying, the shutter was opened, and a group of about 100 housefly adults were exposed to the settling mist for 10 minutes. Subsequently, the number of knocked down houseflies was counted to calculate the knock-down ratio. The houseflies were then transferred to another cage, fed and allowed to stand for a day at room temperature. Thereafter, the number of dead and alive houseflies was counted to calculate the mortality.

A further data set concerns diamondback moths. Description: Test Example 2: pesticidal effects on diamondback moth larvae, sprayed Chinese cabbage. The following applies: for LC50: Plutella xylostella, 48 h, fourth instar larvae, after 2 days, from 20 % emulsifiable concentrates, read-out: LC50 (50 % lethal concentration); for Ratio of effect: relative to DDVP, defined as 1.0. As for the experimental part:
The present compounds (1), (2), (3) and (4) were individually formulated according to ordinary procedure into 20 % emulsifiable concentrates. As a control, DDVP was also formulated into a 20 % emulsifiable concentrate.
Each of the above-mentioned emulsifiable concentrates was diluted with water to a test concentration, and 10 ml. of the resulting dilution was sprayed to the potted Chinese cabbages at the stage of 3 to 4 leaves. Subsequently, the cabbage leaves were put in a glass Petri dish of 14 cm. in diameter and 7 cm. in height, and 10 diamondback moth larvae at the fourth instar stage were liberated into the dish. After 2 days, the number of dead and alive larvae was counted to calculate the value of LC50 (50 % lethal concentration).

This note sets out measurements from patent publication US3981903A, “Cyclopropane carboxylic acid esters” (Sumitomo Chemical Company, Limited, priority 1973, dated 1976).

≈ marks a conversion by molar mass, not a printed value.

Usually mortality stands for the percentage killed. The low end stands for more survivors, the high end for fewer survivors. In the case of `CC1(C)C(C=C(Cl)Cl)C1C(=O)OC/C=C(\Br)Cc1ccccc1` (stereo not drawn) [(2), 3-Bromo-4-phenyl-trans-2-butene-1-yl 2',2'-dimethyl-3'-(2",2"-dichlorovinyl)-cyclopropanecarboxylate], in the data set on green rice leafhoppers, the Mortality turned out to be 100% and the “KT50 (50 % knock-down time)” value was 13 min. Also, in the data set with housefly adults, the “Ratio of knocked down houseflies after 10 minutes” value (“Ratio of knocked down houseflies” for short) stood at 100% and the mortality at 0.2 % is 99%. Also, in the data set on diamondback moths, the LC50 came to 56 µg/mL (≈ 134 µM) and the Ratio of effect is reported as 6.6.

With `CC(=CCOC(=O)C1C(C=C(Cl)Cl)C1(C)C)Cc1ccccc1` (stereo not drawn) [(4), 3-Methyl-4-phenyl-2-butene-1-yl 2',2'-dimethyl-3'-(2",2"-dichlorovinyl)-cyclopropanecarboxylate], in the data set on green rice leafhoppers, the Mortality amounted to 100% and the “KT50 (50 % knock-down time)” value is 15 min. Further, in the data set with housefly adults, the “Ratio of knocked down houseflies” value is reported as 100% and the mortality at 0.2 % was 98%. Further, in the data set on diamondback moths, the LC50 is 75 µg/mL (≈ 212 µM) and the Ratio of effect is listed as 4.9.

For the molecule `CC1(C)C(C=C(Cl)Cl)C1C(=O)OCC=C(Cl)Cc1ccccc1` (stereo not drawn) [(5), 3-Chloro-4-phenyl-trans-2-butene-1-yl d-trans-2',2'-dimethyl-3' -(2",2"-dichlorovinyl)-cyclopropanecarboxylate], in the data set with green rice leafhoppers, the Mortality amounted to 100% and the “KT50 (50 % knock-down time)” value came out at 9 min.

On to `COP(=O)(OC)OC=C(Cl)Cl` [DDVP, 0,0-Dimethyl 0-2,2-dichlorovinyl phosphate, reference compound], for which, in the data set on diamondback moths, the LC50 came out at 370 µg/mL.

As to `CC1(C)C(C=C(Cl)Cl)C1C(=O)OC/C=C/Cc1ccccc1` (stereo not drawn) [(3), 4-Phenyl-trans-2-butene-1-yl 2',2'-dimethyl-3'-(2",2"-dichlorovinyl)-cyclopropanecarboxylate], in the data set on green rice leafhoppers, the Mortality amounted to 100% and the “KT50 (50 % knock-down time)” value turned out to be 11 min. Further, in the data set on housefly adults, the “Ratio of knocked down houseflies” value worked out at 100% and the mortality at 0.2 % amounted to 100%. Also, in the data set with diamondback moths, the LC50 turned out to be 48 µg/mL (≈ 141 µM) and the Ratio of effect stood at 7.7.

As for `CC1(C)C(C=C(Cl)Cl)C1C(=O)OC/C=C(\Cl)Cc1ccccc1` (stereo not drawn) [(1), 3-Chloro-4-phenyl-trans-2-butene-1-yl 2',2'-dimethyl-3'-(2",2"-dichlorovinyl)-cyclopropanecarboxylate], in the data set on green rice leafhoppers, the Mortality is recorded as 100% and the “KT50 (50 % knock-down time)” value was determined as 19 min. Besides, in the data set on housefly adults, the “Ratio of knocked down houseflies” value is 100% and the mortality at 0.2 % came to 100%. Further, in the data set on diamondback moths, the LC50 came out at 43 µg/mL (≈ 115 µM) and the Ratio of effect stood at 8.6.

In the case of `CC1(C)C(C=C(Cl)Cl)C1C(=O)OC/C(Cl)=C(\Cl)Cc1ccccc1` (stereo not drawn) [(6), 2,3-Dichloro-4-phenyl-trans-2-butene-1-yl 2',2'-dimethyl-3'-(2",2"-dichlorovinyl)-cyclopropanecarboxylate], in the data set on green rice leafhoppers, the Mortality amounted to 100% and the “KT50 (50 % knock-down time)” value is 21 min.

As for `CNC(=O)Oc1ccc(C)c(C)c1` [Meobal, 3,4-dimethylphenyl-N-methyl carbamate, reference compound], in the data set on green rice leafhoppers, the “KT50 (50 % knock-down time)” value came to 24 min.
